Measurements as given in publication PMC5679629, “Flavin-containing monooxygenase 3 (FMO3) role in busulphan metabolic pathway” (PLoS ONE, 2017).

Legend:
CYP1A1 = target: T1, CYP1A1 (Homo sapiens, UniProt P04798); assay: THT disappearance with recombinant cDNA-expressed enzyme microsomes; format: in vitro ADME; conditions: 25μM THT, 35pmol CYP/mL
T1 construct: purchased BD Biosciences; host or cells: baculovirus infected insect cells
T1 sequence (P04798 1-512): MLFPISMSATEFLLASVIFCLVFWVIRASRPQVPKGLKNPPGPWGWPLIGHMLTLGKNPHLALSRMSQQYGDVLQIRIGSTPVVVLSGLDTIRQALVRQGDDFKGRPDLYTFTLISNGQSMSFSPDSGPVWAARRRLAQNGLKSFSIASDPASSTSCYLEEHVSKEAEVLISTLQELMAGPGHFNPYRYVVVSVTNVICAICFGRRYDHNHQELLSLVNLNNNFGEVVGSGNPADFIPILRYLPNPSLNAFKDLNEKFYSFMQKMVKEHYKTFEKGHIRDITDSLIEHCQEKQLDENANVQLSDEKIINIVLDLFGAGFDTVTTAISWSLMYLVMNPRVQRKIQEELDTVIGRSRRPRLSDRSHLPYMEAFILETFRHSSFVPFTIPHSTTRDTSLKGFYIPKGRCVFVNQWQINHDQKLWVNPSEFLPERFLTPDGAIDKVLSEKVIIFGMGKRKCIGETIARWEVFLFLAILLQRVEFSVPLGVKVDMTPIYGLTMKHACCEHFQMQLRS
Method: To identify the enzymes involved in Bu metabolism, 11 microsomal batches (BD Biosciences, Stockholm, Sweden), each containing a separate cDNA-expressed enzyme, were incubated with 25μM THT. The microsomes contained FMO3, CYP1A1, CYP1A2, CYP2B6, CYP2C8, CYP2C9, CYP2C19, CYP2D6, CYP2E1, CYP3A4 or CYP4A11. Time curves (0, 5, 15, 30 and 60min) were performed at a concentration of 0.35mg protein /mL for FMO3 and 35pmol CYP/mL for the CYP enzymes. The recombinant enzymes were produced from human cDNA expressing each of them using baculovirus expression system. Baculovirus infected insect cells were used to prepare these microsomes.
(§1) Incubations were performed in triplicate and negative controls (excluding NADPH, microsomes, THT or by terminating the incubations before the addition of NADPH) were run in parallel.
(§2) To measure THT and the secondary metabolite, sulfolane, the reactions were terminated by adding dichloromethane. Samples (180μL) were added to 10μM nicotine (20μL, Merck, Hoherbrunn, Germany), used as an internal standard, before extraction. The matrix was extracted by liquid-liquid extraction with dichloromethane (equal volumes, 200μL) after 30 sec of high speed vortexing. After extraction and centrifugation at 16000 g for 10 min, the organic phase was transferred into GC-MS tubes. […] Samples (180μL) were added to 10 μM of 3-methylsulfolane (20μL, TCI, Tokyo, Japan), used as an internal standard. The matrix was lyophilized (< 1 mbar at 40°C under N2 stream) to dryness, the residue was dissolved in 10 μL water and 200 μL of ethyl acetate was added for extraction. Samples were vortexed for 30 sec at high speed and centrifuged at 16000 g for 10 min. The organic phase was transferred to GC-MS tubes.
(§3) Concentrations of THT and its metabolites were measured using GC-MS [18] after validation for use with microsomal incubations according to the international guidelines.

[1] = Busulphan kinetics in mice (alone, after PTU pretreatment, or with high-dose THT); conditions: mice injected with Bu and PTU
Method: Male C57BL/6N mice (6–8 weeks old) were purchased from Charles River (Cologne, Germany). The mice were allowed to acclimatize to the surroundings for 2 weeks with a 12h dark/12h light cycle and randomized for treatment. Standard laboratory chow and water ad libitum was introduced.
To study Bu and THT kinetics, Bu (Sigma-Aldrich, Steinheim, Germany) was administered i.p. (25mg/kg or 100μmol/kg) as a 2mM solution in DMSO (Sigma-Aldrich, Stockholm, Sweden) [21]. THT was also prepared as a 2mM solution in DMSO and the dose given was equimolar to the Bu treatment (i.e. 100μmol/kg or 8.8 mg/kg). Upon injection, samples were diluted with physiological NaCl solution to a final DMSO concentration of 10% in the dosing solution. At the appropriate time points (10min, 30min, 1h, 2h, 4h, 6h and 8h), mice (three mice at each time point) were anesthetized using 2% isoflurane and the blood samples were collected by heart puncture. Mice were euthanized by cervical dislocation. Plasma was separated and stored at -20°C.
PTU (3mg/kg) was dissolved in DMSO and diluted with physiological NaCl solution and then injected into the mice once daily followed by Bu or THT injections on the 4th day. The mice were euthanized and plasma samples prepared as in the previous experiment.
To detect the effect of high THT concentrations on Bu metabolism, a third group of mice was injected with both Bu (100μmol/kg) and a high dose of THT (17.6mg/kg or 200μmol/kg) and samples prepared as described previously. All experiments including negative controls (mice injected with 10% DMSO in NaCl solution) and mice injected with PTU alone were performed in triplicates.
To quantify Bu, samples were extracted according to the method reported previously by Hassan et al. [24]. Briefly, 500 μL of plasma were diluted with 500 μL of water. Fifty microliters of the internal standard (1,5-bis(methanesulfonoxy)pentane; 38.5 μM) were added, followed by the addition of 1 mL of sodium iodide (8M, Merck, Darmstadt, Germany) and 400μL of n-heptane (Merck, Darmstadt, Germany). The tubes were placed under magnetic stirring in a water bath (70°C) for 45 min. During the reaction, busulphan and 1,5-bis(methanesulfonoxy)pentane were converted to 1,4-diiodobutane and 1,5-diiodopentane respectively and subsequently extracted with n-heptane [25]. The conversion of busulphan and 1,5-bis(methanesulfonoxy)pentane to 1,4-diiodobutane and 1,5-diiodopentane was over 90% [24]. The organic phase was analyzed by GC-MS [18]. THT was quantified as described previously and the method was validated for use with mouse plasma before measuring both Bu and THT [19, 20].
Kinetic parameters from in vivo studies were estimated using WinNonLin software (standard edition, version 2.0), while Microsoft Excel and SigmaPlot software (version 12.5, Systat software, Inc.) were utilized for in vitro kinetics.

[2] = Busulphan and THT plasma kinetics in a patient treated concomitantly with voriconazole; format: in vivo, human; conditions: Bu 2mg/kg b.i.d. with concomitant voriconazole
Method: In order to confirm the contribution of FMO3 to human Bu kinetics, blood samples were collected (routinely) from a patient who underwent stem cell transplantation and was conditioned according to the hospital transplantation protocol i.e. high dose of Bu (2mg/kg b.i.d.) for four days followed with two days of cyclophosphamide (60mg/kg). […] Voriconazole was administered, according to the hospital clinical protocol, for the treatment of an acute fungal infection.
Samples were taken for therapeutic drug monitoring (TDM) at several time points after the first, third and fifth doses. Blood was collected into EDTA vacutainer tubes, plasma was separated by centrifugation at 1200 g and stored at -20°C until analysis of Bu and THT [18].

[3] = test system: pooled human liver microsomes (HLM); assay: THT disappearance on incubation with pooled human liver microsomes, with heat-inactivation of FMO3 or carbon monoxide inactivation of CYPs; format: in vitro ADME
Method: THT (Sigma-Aldrich, Stockholm, Sweden) was received as a liquid solution and stock solutions were prepared daily and diluted in 50mM potassium phosphate buffer pH 7.4.
Linearity of the reactions with time, enzyme and THT concentrations was determined before measuring apparent enzyme kinetic constants; pooled human liver microsomes (HLM) (Cypex, Dundee, UK) were incubated at different enzyme concentrations with a range of THT concentrations (10–500μM).
Time curves were performed by incubating microsomes in 50mM potassium phosphate buffer (pH 7.4) in a total volume of 200μL. The reaction was started by the addition of NADPH (Sigma-Aldrich, St. Louis, USA) to a final concentration of 1mM and terminated by adding one volume of ice cold dicholormethane (Fluka, Seeze, Germany).
The relative contribution of CYPs and FMO3 in the metabolism of THT was studied by heat-inactivation of FMO3 in some incubations and, in other incubations, CYP enzymes in HLM were inactivated by carbon monoxide (AGA Gas, Enköping, Sweden) bubbling.
as §1
as §2, with “The matrix was lyophilized (< 1 mbar at 40°C under N2 stream) to dryness, the residue was dissolved in 10 μL water and 200 μL of ethyl acetate was added for extraction. Samples were vortexed for 30 sec at high speed and centrifuged at 16000 g for 10 min. The organic phase was transferred to GC-MS tubes.” left out
as §3

[4] = THT kinetics in mice (alone or after PTU pretreatment); format: in vivo, Male C57BL/6N mice; conditions: THT-treated mice (8.8mg/kg i.p.) pretreated with PTU 3mg/kg i.p. for 3 days
Method: Standard laboratory chow and water ad libitum was introduced.
THT was also prepared as a 2mM solution in DMSO and the dose given was equimolar to the Bu treatment (i.e. 100μmol/kg or 8.8 mg/kg). […] At the appropriate time points (10min, 30min, 1h, 2h, 4h, 6h and 8h), mice (three mice at each time point) were anesthetized using 2% isoflurane and the blood samples were collected by heart puncture. Mice were euthanized by cervical dislocation. Plasma was separated and stored at -20°C.
A similar experiment was performed in a second group of mice, after 3 days of i.p. injections with the FMO3-inhibitor, Phenylthiourea (PTU, Sigma-Aldrich, Stockholm, Sweden, S1 Fig). PTU (3mg/kg) was dissolved in DMSO and diluted with physiological NaCl solution and then injected into the mice once daily followed by Bu or THT injections on the 4th day.
Briefly, 500 μL of plasma were diluted with 500 μL of water. Fifty microliters of the internal standard (1,5-bis(methanesulfonoxy)pentane; 38.5 μM) were added, followed by the addition of 1 mL of sodium iodide (8M, Merck, Darmstadt, Germany) and 400μL of n-heptane (Merck, Darmstadt, Germany). […] The organic phase was analyzed by GC-MS [18]. THT was quantified as described previously and the method was validated for use with mouse plasma before measuring both Bu and THT [19, 20].

SMILES: C1CCSC1 [THT, tetrahydrothiophene]
- v0 (CYP1A1): 1.68 nmol/min/mL
- v0/CYP (CYP1A1): 0.05 nmol/min/pmol CYP
- THT concentrations versus Bu alone [1]: significantly (P<0.05, t-test) increased
- THT concentrations versus Bu alone [2]: higher concentrations than with Bu alone
- time at which THT was detected after the first dose of Bu [2]: 1 h
- THT disappearance on incubation with HLM [3]: rapid THT disappearance
- reduction of THT disappearance by CYP inhibition by carbon monoxide [3]: 9%
- reduction of THT disappearance by inactivation of FMO3 (heat treatment) ([3]; within 60 min): 44%
- THT concentrations versus THT only [4]: significantly (P<0.05, t-test) higher
